Experimental findings from ChEMBL document CHEMBL1287757, “Straightforward synthesis of triazoloacyclonucleotide phosphonates as potential HCV inhibitors” (Bioorg Med Chem Lett, 2010) are described below.

For data set [1], the system named is Human immunodeficiency virus. The data set is described as follows: Antiviral activity against HIV assessed as inhibition of viral replication. Type of data set: functional, organism-based.
In data set [2] the test system is Hepatitis C virus. The data set can be described thus: Antiviral activity against HCV infected in Huh5.2 cells assessed as inhibition of viral replication by luciferase reporter gene assay. Type of data set: functional, organism-based, Hepacivirus hominis. Particulars: Huh-5-2. (In general: Reporter assays use an easily measured gene product as a stand-in for the process of interest.)

Data set [3] can be described thus: Cytotoxicity against human HuH5.2 cells. The data set is classed as cell-based, Huh-5-2.
Data set [4] in a line: Selectivity ratio, ratio of CC50 for Huh5.2 cells to IC50 for HCV infected in Huh5.2 cells. Type of data set: cell-based. Conditions: human, Huh5.2 cells (CC50) and HCV-infected Huh5.2 cells (IC50).
For data set [5], the system named is Hepatitis C virus. The data set can be described thus: Antiviral activity against HCV infected in Huh5.2 cells assessed as concentration required to inhibit viral replication without causing an antimetabolic effect. The data set is classed as functional, Hepacivirus hominis.

Usually IC50 stands for the midpoint of a concentration-inhibition curve. In general, CC50 refers to the concentration at which the toxic effect on the cells reaches its halfway point. A lower CC50 goes with harm at low concentration.

Activity calls are given as the source filed them. The rule behind the calls is not given here.

In the case of `O=c1ccn(Cc2cn(CCP(=O)(O)O)nn2)c(=O)[nH]1`, in data set [1], the result was inactive. Also, the IC50 with Hepatitis C virus [2] turned out to be 16 µM. For the same molecule, the CC50 in data set [3] was more than 300 µM. In addition, the selectivity ratio in data set [4] is more than 20. The Imax in the data set on Hepatitis C virus [5] came out at 75.47%.

Consider `Cc1cn(Cc2cn(CCP(=O)(O)O)nn2)c(=O)[nH]c1=O`, for which, in data set [1], the outcome was inactive. The IC50 in the data set on Hepatitis C virus [2] is 20 µM. This molecule gave a cytotoxic concentration (CC50) in data set [3] of more than 300 µM. For the same molecule, in data set [4], the selectivity ratio is more than 15. For the same molecule, the Imax in the data set with Hepatitis C virus [5] is 79.28%.

As for `O=c1ccn(Cc2cn(CP(=O)(O)O)nn2)c(=O)[nH]1`, the result in data set [1] was inactive. For the same molecule, the IC50 with Hepatitis C virus [2] was found to be 29 µM. Also, the CC50 in data set [3] is 131 µM. In data set [4], the selectivity ratio is 4.42.

Consider `Cc1cn(Cc2cn(CP(=O)(O)O)nn2)c(=O)[nH]c1=O`, for which, in data set [1], the result was inactive. Also, the IC50 with Hepatitis C virus [2] is 26 µM. Also, the CC50 in data set [3] was more than 300 µM. Moreover, in data set [4], the selectivity ratio is more than 13.

Regarding `Nc1ncnc2c1ncn2Cc1cn(CP(=O)(O)O)nn1`, in data set [1], the outcome was inactive. Also, in the data set on Hepatitis C virus [2], the IC50 turned out to be 16 µM. The cytotoxic concentration (CC50) in data set [3] is more than 300 µM. For the same molecule, the selectivity ratio in data set [4] is more than 20. In addition, the Imax with Hepatitis C virus [5] was 80.65%.

As for `Nc1ncnc2c1ncn2Cc1cn(CCP(=O)(O)O)nn1`, the outcome in data set [1] was inactive. Moreover, the IC50 in the data set on Hepatitis C virus [2] is more than 35 µM. The molecule further returned a CC50 in data set [3] of 35 µM. In addition, in data set [4], the selectivity ratio was less than 1.
